Experimental data: ChEMBL document CHEMBL3400029, “Xanthones from the roots of Maclura cochinchinensis var. gerontogea and their retinoic acid receptor-α agonistic activity” (Bioorg Med Chem Lett, 2015)
Calls of active or inactive are those of the source. No cut-off for these calls is given here.

What was measured:
Type in all cases: cell-based
[1] = molecular target: T1, Retinoic acid receptor alpha (Homo sapiens) (UniProt P10276); assay: (§1) Agonist activity at RARalpha (unknown origin) expressed in HEK293 cells assessed as transcriptional activation after 48 hrs by luciferase reporter gene assay
T1 sequence (whole entry): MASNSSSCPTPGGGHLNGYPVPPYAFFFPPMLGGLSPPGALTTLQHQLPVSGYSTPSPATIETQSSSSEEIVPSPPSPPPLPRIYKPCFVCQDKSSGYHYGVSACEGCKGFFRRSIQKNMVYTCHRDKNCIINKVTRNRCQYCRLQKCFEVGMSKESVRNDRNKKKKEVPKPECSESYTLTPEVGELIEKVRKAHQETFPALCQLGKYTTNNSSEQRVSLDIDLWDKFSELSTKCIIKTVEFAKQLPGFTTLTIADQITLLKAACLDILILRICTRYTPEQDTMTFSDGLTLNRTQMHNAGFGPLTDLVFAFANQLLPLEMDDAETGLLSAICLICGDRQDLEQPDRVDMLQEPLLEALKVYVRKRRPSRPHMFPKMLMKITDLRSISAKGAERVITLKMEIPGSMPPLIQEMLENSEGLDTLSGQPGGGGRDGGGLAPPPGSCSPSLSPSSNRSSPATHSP

[2] = molecular target: T2, Retinoic acid receptor alpha (Homo sapiens, UniProt P10276); assay: as §1
T2 sequence (P10276 whole entry): T1 sequence (whole entry)

[3] = molecular target: T2, Retinoic acid receptor alpha; assay: Agonist activity at RARalpha (unknown origin) expressed in HEK293 cells assessed as transcriptional activation after 48 hrs by luciferase reporter gene assay in presence of bexarotene
[4] = molecular target: T1, Retinoic acid receptor alpha (Homo sapiens); assay: Agonist activity at RARalpha (unknown origin) expressed in HEK293 cells assessed as transcriptional activation at 1 uM after 48 hrs by luciferase reporter gene assay
HEK293 = assay: Cytotoxicity against HEK293 cells at > 1 uM; settings: human

Row | SMILES | Activity [1] | EC50 [2] [µM] | EC50 [3] [µM] | Activity [4] | Activity (HEK293)
1 | CC1(C)C=Cc2c(cc(O)c3c(=O)c4c5c(ccc4oc23)OC(C(C)(C)O)C5)O1 (stereo not drawn) | Dose-dependent effect | 0.065 | 0.17 | Active | –
2 | CC(C)=CCc1c(O)ccc2oc3c4c(cc(O)c3c(=O)c12)OC(C)(C)C=C4 | Dose-dependent effect | 0.11 | 0.2 | Active | –
3 | CC1Oc2cc3oc4c(O)c5c(cc4c(=O)c3c(O)c2C1(C)C)C=CC(C)(C)O5 (stereo not drawn) [GERONTOXANTHONE A] | Dose-dependent effect | 0.17 | 0.2 | Active | –
4 | C=CC(C)(C)c1c(O)cc2oc3c(O)c4c(cc3c(=O)c2c1O)C=CC(C)(C)O4 [GERONTOXANTHONE B] | Dose-dependent effect | 1.7 | 2 | Active | –
5 | CC(C)=CCc1c(O)cc(O)c2c(=O)c3c(CC=C(C)C)c(O)ccc3oc12 [GERONTOXANTHONE H] | – | – | – | Active | Toxic
